This is an account of results in patent publication US12306176B2, “Microfluidic bi-directional migration assay” (Ohio State Innovation Foundation, priority 2017, dated 2025).

Experiment [1] deals with lactate dehydrogenase (LDH). As to the kind of experiment: LDH activity colorimetric kinetic assay. Format: cell-based, human. Particulars: EGF 25 ng/mL, 12 hours; not significant. From the text:
(§1) To investigate whether iEF has an effect on metabolic function of MDA-MB-231 cells, the activity levels of lactate dehydrogenase (LDH) and succinate dehydrogenase (SDH) were examined. LDH is an enzyme that catalyzes the interconversion of pyruvate to lactate as part of the glycolysis chain (Pelicano H, et al. (2006) Oncogene 25 (34):4633). SDH is an enzyme within Complex II of the mitochondria that is utilized in both the tricarboxylic acid (TCA) cycle as well as oxidative phosphorylation (OXPHOS) (Gottlieb E & Tomlinson IP (2005) Nat Rev Cancer. 5 (11):857). As part of the TCA cycle, SDH catalyzes the oxidation of succinate to fumarate, and as part of OXPHOS, SDH transfers two electrons from flavin adenine dinucleotide into the electron transport chain (Gottlieb E & Tomlinson IP (2005) Nat Rev Cancer. 5 (11):857). To determine whether LDH or SDH activity levels were changing, colorimetric kinetic assays were employed. […]
(§2) 1×10^6 cells/well were plated in 6 well plates in growth media for 12 hours followed by migration media (0.1% FBS) for an additional 12 hours. […] The LDH activity assay kit (Sigma-Aldrich, MAK066) and the SDH activity colorimetric assay kit (Sigma-Aldrich, MAK197) were used to quantify LDH and SDH activity respectively. […] For quantification of LDH and SDH, the protocols provided by the supplier were followed. […]

Experiment [2] has as its system succinate dehydrogenase (SDH). As to the kind of experiment: SDH activity colorimetric kinetic assay. It counts as cell-based, human. Particulars: EGF 25 ng/mL, 12 hours; not significant.
Text: as §1, §2

Consider epidermal growth factor [EGF], for which the “change of LDH activity from control” value in experiment [1] is on record as below 6%. In addition, the “increase of SDH activity” value in experiment [2] is recorded as 23%.
